Assay results published in patent US5552407A (priority 1993, dated 1996).
“Also recorded” adds a separate entry of the source. Where two headings read alike, the source gives them in different places.

Assays:
[1] = tested on: squirrel monkeys; assay: Whole body plethysmograph, airway conductance / bronchoconstriction in vivo; parameters: species or system squirrel monkey
Description: (§1) Squirrel monkeys or guinea pigs were restrained in a whole body plethysmograph, a sealed box with a separate face mask for each animal. A pneumotachograph and stain gauge assembly permitted the measurement of flow. The ratio of derivatives of flow to box pressure yield a measure of airway conductance (SGAW). MEG was administered at concentrations up to 15 mg/liter of air.
This was studied by exposing a population of squirrel monkeys, which were well-trained and adapted to the experimental setting, to aerosolized cholinergic agonists and then studying the effects of MEG or cocaine pretreatment on the response to cholinergic provocation.
Care was taken to exclude any other source of potential measurement artifact, including reducing dead volumes, examining for leaks, recalibration, and so forth. The particles were dehydrated to reduce their size and facilitate airway entry. The monkeys' nares were occluded to compel mouth breathing. Greater methacholine concentrations in the nebulizer were tested until dramatic decreases in heart rate occurred, consistent with significant systemic absorption of this relatively short duration cholinergic agonist.
This may reflect the antihistaminic activity of MEG observed in vitro.

[2] = tested on: guinea pigs; assay: Inhalation exposure safety in guinea pigs; type: in vivo, guinea pig
Description: as §1
Guinea pigs are known to be highly sensitive to pulmonary manipulations.

[3] = tested on: chicken biventer cervicis muscle; assay: Chicken biventer cervicis muscle in vitro, assay for antinicotinic activity; type: cell-based
Excerpt: As observed by the present inventors, MEG was ineffective in altering the amplitude of tension produced by supramaximal electrical stimulation, or ACh-produced contraction of the chicken biventer cervicis muscle in vitro, an assay for antinicotinic activity (B. L. Ginsborg et al., Br. J. Pharmacol. 15:410 (1960); H. A. N. El-Fawal et al., Neurotoxicology 9:625 (1988)).

[4] = tested on: guinea pig tracheal rings; assay: Carbachol-induced contraction of isolated tracheal rings; details: Cavia porcellus, 5 min, read-out: reduction of carbachol-induced contraction
[5] = tested on: guinea pig tracheal rings; assay: Acetylcholine-induced contraction of isolated tracheal rings; details: for minimal effective concentration: Cavia porcellus, 5 min; for spasmogenic activity by itself: absence of ACh
[6] = tested on: guinea pig tracheal rings; assay: Histamine-induced contraction of isolated tracheal rings
[7] = tested on: guinea pig tracheal rings; assay: Relaxation or tension of pre-contracted tracheal rings
[8] = tested on: muscarinic receptor; details: cited from earlier work
[9] = tested on: guinea pig tracheal rings; details: cited from earlier work
[10] = tested on: guinea pig tracheal rings; details: atropine at 3, 10 and 30 nM; cited from earlier work

COC(=O)C1=CCC2CCC1N2C (centres unmarked) [MEG, anhydroecgonine methyl ester]
bronchoconstriction in response to inhaled histamine ([1]; animals pretreated with MEG): bronchoconstriction, but only at unusually high levels | airway effect of MEG given alone by inhalation ([1]; squirrel monkeys or guinea pigs, up to 15 mg/liter of air): Bronchoconstriction was observed | bronchoconstriction in response to aerosolized ACh or methacholine ([1]; squirrel monkeys with extensive histories of exposure to MEG): unable to produce bronchoconstriction; also recorded: no bronchoconstriction observed | mortality ([2]; 14 mg/liter of air by inhalation): Only one exposed guinea pig died | margin of safety ([2]; in vivo studies): wide margin of safety | effect on amplitude of tension from supramaximal electrical stimulation or ACh-produced contraction [3]: ineffective | inhibition at 0.1 µM [4]: 50% | cholinergic agonist activity [5]: lack any cholinergic agonist activity | kind of antagonism of ACh-induced contraction ([5]; ACh up to 2×10^-3 M): reduced the magnitude of contraction produced by ACh without changing the tissue threshold of contraction; also recorded: could not be overcome; also recorded: non-competitively antagonized acetylcholine; also recorded: potent non-competitive cholinergic antagonist | minimal effective concentration ([5]; read-out: concentration at and above which insurmountable non-competitive antagonism was produced): ≥ 0.001 µM | minimal effective concentration ([5]; read-out: concentration at and above which peak tension produced by ACh was reduced): ≥ 0.001 µM | minimal effective concentration ([5]; read-out: lowest level showing anticholinergic properties): 0.1 µM | effect of MEG on cocaine's sensitization/potentiation of ACh ([5]; MEG 10^-7 M with cocaine 5×10^-6 M): antagonized cocaine's potentiation of acetylcholine's efficacy; also recorded: reduced the sensitization to ACh; also recorded: non-competitively antagonized ACh in the presence of cocaine sensitization | recovery of responsiveness to ACh after exposure ([5]; after washing of the preparation): full responsiveness to ACh could not be restored; also recorded: no recovery after washing of the preparation; also recorded: irreversible | effect on histamine threshold ([6]; MEG 10^-7): shifting the histamine threshold upwards | effect on contraction-inducing action of histamine ([6]; MEG 10^-7 and 10^-9 M): antagonized the contraction-inducing action of histamine | effect on rings with mechanically elevated tension [7]: failed to relax | concentrations for relaxation relative to those antagonizing ACh-induced contraction with preincubation ([7]; pre-contraction with 10^-3 ACh): two orders of magnitude higher | effect on rings pre-contracted with ACh ([7]; pre-contraction with 10^-3 ACh): dose-dependent relaxation

COC(=O)[C@H]1[C@@H](OC(=O)c2ccccc2)C[C@@H]2CC[C@H]1N2C [cocaine, reference compound]
concentration with antimuscarinic properties as assayed by QNB binding [8]: 18 µM | spasmogenic activity by itself [5]: did not produce tension in the absence of ACh | spasmogenic activity by itself ([5]; listed as Cocaine): did not display any spasmogenic activity | effect on maximum tension produced by ACh ([5]; cocaine 5×10^-6 M): increased the maximum tension produced | lowering of the threshold at which ACh produced tension ([5]; cocaine 5×10^-6 M): two orders of magnitude | concentration that decreased ACh-induced tension ([5]; cocaine HCl): 10^-4 M | concentrations that increased ACh-induced tension ([5]; cocaine HCl, 5 min incubation): 10^-7 to 10^-5 M | effect on maximum response relative to ACh alone ([5]; cocaine at 10^-4 M): reduced the maximum response to a third | effect on threshold for contraction elicited by ACh ([5]; cocaine at 10^-4 M): increased the threshold | effect on threshold for contraction elicited by ACh ([5]; cocaine at 10^-6 M): lowered the threshold | effect on tension produced by ACh at the highest ACh concentration ([5]; cocaine at 10^-7 M, ACh 2×10^-3 M): increased the tension | recovery of responsiveness to ACh after exposure ([5]; cocaine at concentrations below 10^-4 M): restored with no desensitization | effect on tissue pre-contracted with ACh ([7]; cocaine from 10^-4 M to 2×10^-3 M): further increase in dose-dependent tension

CN1[C@@H]2CC[C@H]1C[C@@H](OC(=O)C(CO)c1ccccc1)C2 (some centres unmarked) [atropine]
carbachol concentration at which the effect was surmountable ([9]; 10^-7 M atropine): 10^-4 M | magnitude of reduction at any given carbachol concentration, compared with MEG ([9]; 10^-7 atropine): usually less than that produced by MEG | kind of antagonism of ACh-induced contraction [10]: competitively antagonized ACh-induced contraction
